Test results as given in patent publication US11510896B2, “Antiviral compositions for the treatment of infections linked to coronaviruses” (priority 2016, dated 2022).

Assays:
[1] = tested on: MERS-CoV strain France-UAE/1612/2013; assay: microbe, parasite or virus in culture; type: cell-based, MERS-CoV coronavirus; conditions: for IC50: Middle East respiratory syndrome-related coronavirus, Vero C1008, 24 h, read-out: IC50 (dose necessary to obtain a 50% viral production inhibition)
horses = horses versus ruminants; cited from earlier work

| SMILES | reduction of the infectious titres with respect to the control ([1]; 12.5 μM) | IC50 [1] | reduction of the infectious titres with respect to the control ([1]; 6 μM) | LD50 in horses, times less than in ruminants (horses) |
| --- | --- | --- | --- | --- |
| COc1ccc2cc3[n+](cc2c1OC)CCc1cc2c(cc1-3)OCO2 [berberine, Berberine] | 78.4% | 3800 nM | – | – |
| CC[C@@]1([C@@H]2O[C@@H]([C@H]3O[C@@](O)(CO)[C@H](C)C[C@@H]3C)C[C@@H]2C)CC[C@H]([C@]2(C)CC[C@]3(C[C@H](O)[C@@H](C)[C@@H]([C@@H](C)[C@@H](OC)[C@H](C)C(=O)O)O3)O2)O1 [monensin, Monensin] | – | 1250 nM | 97.8% | 100 times |
